# Test results published in patent publication US8349583B2, “Distinguishing cells in a sample by inactivating extracellular enzyme before releasing intracellular enzyme” (priority 2005, dated 2013).
# Where “and” joins values, the source holds several entries; their conditions need not be identical. Identical values can stand only once. Marks after values point to notes of the source that are not given here.
# Experiments:
# Type in all cases: biochemical
# [1] = test system: bacterial adenylate kinase; test: AK reduction by different proteases over time for different organisms; settings: 37° C., 10 to 120 minutes; trypsin 1000, papain 10, proteinase K 2.5, chymotrypsin 1 U/ml
# Protocol: • 1. Bacteria were scraped from plates and inoculated in approximately 20 ml of broth only. These were incubated overnight at 37° C. • 2. 10× stocks of the enzymes were prepared in broth only: • a. 10 mg of 16,000 U/mg Trypsin added to 16 ml of broth to give 10,000 U/ml (10×) stock. • b. 25 mg of 4 U/mg Papain added to 1 ml of broth to give 100 U/ml (10×) stock. • c. 10 mg of 7.5 U/mg proteinase K added to 3 ml of broth to give a 25 U/ml (10×) stock. • d. 10.5 ul of 239 U/ml chymotrypsin added to 239.5 ul of broth to give a 10 U/ml stock. • 3. The inoculums were then centrifuged at approximately 14030 RCF for one hour. • 4. The supernatant was then taken, tested for adenylate kinase activity (described below), and diluted with broth only if needed to give about 10^5 cpm/ml. • 5. The supernatant was then assayed for adenylate kinase activity at time point zero in triplicate and averaged. • 6. 1.5 ml solutions of the supernatants were prepared with the correct concentration of enzyme, or broth for control. These were incubated at 37° C. • 7. Samples were then taken and assayed in triplicate for adenylate kinase activity at 10, 30, 60 and 120 minutes. • 8. The triplicates were averaged, and normalised by dividing by the time point zero average. Adenylate Kinase Assay (AK Only No Cells) • 1. […] added to a cuvette. • 2. […] RLU read immediately. […]
# [2] = Effect of incubation pH on purified AK activity (luciferin/luciferase)
# Protocol: (§1) Experimental work used adenylate kinase-generated ATP to drive a luciferin/luciferase activity, giving results in RLUs as a quantitative measure of initial ATP levels. All AK assays were performed at pH 7.5, and 37° C. Results of the assay were read at ambient temperature.
# To assess the effect of pH on AK activity, purified enzyme was incubated for 1 hour at various pH, with pH 7.5 being the control (normal assay conditions). AK activity was measured by using the bioluminescent luciferin/luciferase to detect AK-generated ATP.
# [3] = AK activity after transient pH drop or acidic incubation at pH 4; settings: for AK activity relative to control: listed as AK alone
# Protocol: as §1
# In further experiments, three treatment conditions were tested: (i) a control, run at pH 7.5 with no pH change; (ii) a transient pH drop before the assay, where pH was reduced to pH 4 and then returned to pH 7.5; and (iii) an acidic incubation, where pH was reduced to pH 4 for 15 minutes. AK activity was then assessed. In parallel tests, the effect of these pH conditions on the viability of E. coli and E. faecalis was assessed.
Substance,degradation of AK extracted from different organisms [1],"AK activity, RLU ([2]; incubated 1 hour at pH 3)","AK activity, RLU ([2]; incubated 1 hour at pH 4)","AK activity, RLU ([2]; incubated 1 hour at pH 5)","AK activity, RLU ([2]; incubated 1 hour at pH 6)","AK activity, RLU ([2]; incubated 1 hour at pH 7.5 (control, normal assay conditions))","AK activity, RLU ([2]; incubated 1 hour at pH 9)","AK activity, RLU ([2]; incubated 1 hour at pH 10)","AK activity, RLU ([2]; incubated 1 hour at pH 11)","AK activity, RLU ([2]; incubated 1 hour at pH 12)",AK activity relative to control ([3]; acidic incubation: pH 4 for 15 minutes),reduction in AK activity ([3]; incubation at pH 4) [fold],AK activity relative to control ([3]; transient pH drop: reduced to pH 4 and returned to pH 7.5)
chymotrypsin,degraded the AK in a similar manner to trypsin,–,–,–,–,–,–,–,–,–,–,–,–
adenylate kinase [AK],–,15.7 RLU (10^3),11.1 RLU (10^3),299.0 RLU (10^3),333.5 RLU (10^3),288.2 RLU (10^3),262.4 RLU (10^3),214.5 RLU (10^3),201.2 RLU (10^3),88.6 RLU (10^3),13% and 8%,~10,91% and 89%
